Marks after values point to notes of the source that are not given here.
Legend:
[1] = system: SK-MEL-28; assay: NCI60 anticancer drug screen; type: cell-based, human; conditions: SK-MEL-28 (Melanoma), 10 μM, 48 h; lethality rather than inhibition
[2] = system: LOX IMVI; assay: NCI60 anticancer drug screen; type: cell-based, human; conditions: LOX IMVI (Melanoma), 10 μM, 48 h; lethality rather than inhibition
[3] = system: 60 human tumor cell lines (NCI60); assay: NCI60 anticancer drug screen, whole panel; type: cell-based; conditions: 10 μM, 48 h
From the text: The aminocaproate-substituted corrole Complex 3 was submitted to NCI for cytotoxic screening at a single high dose (10−5M) in a panel of 60 human tumor cell lines (NCI60). Details of the cytotoxicity assessment in the NCI anticancer drug screen have been described previously, in Monks A, et al. (1991) Feasibility of a high-flux anticancer drug screen using a diverse panel of cultured human tumor cell lines. J Natl Cancer Inst 83(11):757-766, this reference being incorporated by reference for these teachings.
In view of the promising results observed for carboxylated corroles, Complex 3 was selected for expanded cell screening to uncover additional susceptible cancer cell lines. The cytotoxic activity of Complex 3 was tested at a dose of 10^−5 M against 60 human cancer cell lines representing nine distinct tumor types in the anticancer screening program of the National Cancer Institute (NCI). The in vitro parameters for cytotoxicity, growth percent, and lethality were obtained for Complex 3 and reported as a mean graph of the percent growth of treated cells (FIG. 7). Bars in the mean graph depict the deviation of individual tumor cell lines from the overall mean value for all cells tested. Bars that project to the right of the mean represent cell lines that are more sensitive to Complex 3, whereas cell lines less sensitive to the compound display bars that project to the left. […]

Structure (SMILES): O=C(O)CCCCCNc1c(F)c(F)c(C2=C3C=CC4=[N+]3[Ga-]35[n]6c2ccc6C(c2c(F)c(F)c(F)c(F)c2F)=c2ccc([n]23)=C(c2c(F)c(F)c(F)c(F)c2F)c2ccc4[n]25)c(F)c1F (stereo not shown) [Complex 3]
- % lethality [1]: 12.1** %
- % lethality [2]: 9.7** %
- activity against all NCI60 cell lines derived from nine tumor types [3]: highly active
- average growth inhibition ([3]; NCI60 panel): 70%

— patent US10035806B2, “Derivatized corroles and metallocorroles and their use as imaging and therapeutic agents” (CALIFORNIA INSTITUTE OF TECHNOLOGY, priority 2015, dated 2018)
